Patent US8785594B2, “Glycoproteins and glycosylated cells and a method for the preparation of the same” (Glycom A/S, priority 2007, dated 2014)

Tests used:
B16.BL6 melanoma cells [1] = assay: Cell concentration and viability after conjugation, trypan blue (Example 15); assay type: cell-based
Description: (§1) Twelve flasks (300 cm^2) (TPP, Trasadingen Switzerland) of confluent B16.BL6 melanoma cells grown in DMEM containing 10% fetal calf serum (without P/S) at 37.5° C. in 5% CO2 was used for this experiment. Growth medium was removed from the cells and 20 mL of HBSS containing D-glucose (without Mg^2+ and Ca^2+) (Gibco, Invitrogen, Taastrup, Denmark) was added to the cells and immediately removed again. Another 10 mL of HBSS containing D-glucose (without Mg^2+ and Ca^2+) was added and removed, before cells were harvested with Cell Dissociation Solution C5914 (Sigma-aldrich, Saint Louis, Mo.) (10 mL per flask) and transferred to 50 mL tubes (TPP, Trasadingen Switzerland). The cells were centrifuged for 3 minutes at 300 G at 20° C. and the supernatant was discarded. Subsequently, cells were washed twice in HBSS containing D-glucose (without Mg^2+ and Ca^2+), centrifuged as above and resuspended in HBSS containing D-glucose (without Mg^2+ and Ca^2+). The concentration of the cell suspension was determined.
Radioactive labelled and regular alpha-Gal trisaccharide-carbamate (9) probe (labeled on the cyclic carbamate carbon) was dissolved in HBSS containing D-glucose (without Mg^2+ and Ca^2+) (Gibco Invitrogen, Taastrup, Denmark) and passed through sterile filters (0.2 μm Supor® Acrodisc® 13, Gelman Sciences, Ann Arbor, Mich.). Eight different concentrations of radioactive labelled alpha-Gal trisaccharide-carbamate (9) (1 μg, 10 μg, 100 μg, 1 mg, 5 mg, 10 mg, 15 mg and 20 mg) and […] concentrations of regular “Glycom conjugate” (10 μg, 100 μg, 1 mg, 5 mg, 10 mg, 15 mg and 20 mg) were used. Twelve flasks (300 cm^2) (TPP, Trasadingen Switzerland) were prepared, each containing 10×10^6 B16.BL6 cells, for conjugation with the radioactive labelled trisaccharide probe, and 8 flasks (150 cm^2) (TPP, Trasadingen Switzerland) were prepared, each containing 5×10^6 B16.BL6 cells, for conjugation with the non-radioactive conjugate. The Glycom conjugate was added and the total volume was adjusted with HBSS containing D-glucose (without Mg^2+ and Ca^2+) so that each large flask (300 cm^2) contained a final volume of 20 mL and each medium flask (150 cm^2) contained a final volume of 10 mL. Cells were incubated with the “Glycom conjugate” for 1.5 hours at 37° C. After conjugation, the supernatant from each flask was transferred to separate 50 mL tubes (TPP, Trasadingen Switzerland). The cells were harvested with Cell Dissociation Solution (10 mL per large flask and 5 mL per medium flask) (Sigma-aldrich, Saint Louis, Mo.) and transferred to the 50 mL tubes containing the supernatant. The cells were centrifuged for 5 minutes at 300 G at 20° C. and resuspended in 5 mL of PBS (without Mg^2+ and Ca^2+). […]

B16.BL6 melanoma cells [2] = assay: Cell concentration and viability after conjugation, trypan blue (Example 14); assay type: cell-based
Description: as §1, with “Nine flasks” for “Twelve flasks”, “CO2 were” for “CO2 was”
Radioactive labelled and regular trisaccharide probe was dissolved in HBSS containing D-glucose (without Mg^2+ and Ca^2+) (Gibco Invitrogen, Taastrup, Denmark) and passed through sterile filters (0.2 μm Supor® Acrodisc® 13, Gelman Sciences, Ann Arbor, Mich.). Four different concentrations of each “Glycom conjugate” (25 mg, 5 mg, 1 mg and 0.1 mg) were made. Twelve flasks (150 cm^2) (TPP, Trasadingen Switzerland) were prepared each containing a total of 10×10^6 B16.BL6 cells. The trisaccharide probe was added and the total volume was adjusted to 20 mL with HBSS containing D-glucose (without Mg^2+ and Ca^2+). The cells were incubated with the “Glycom conjugate” for 1.5 hours at 37° C. After conjugation, the supernatant from each flask was transferred to separate 50 mL tubes (TPP, Trasadingen Switzerland). The cells were harvested with Cell Dissociation Solution C5914 (5 mL per flask) (Sigma-Aldrich, Saint Louis, Mo. and transferred to the 50 mL tubes containing the supernatant. The cells were centrifuged for 3 minutes at 300 G at 20° C. and resuspended in 5 mL of PBS (without Mg^2+ and Ca^2+). This was repeated 3 times before cell concentration and viability was determined by microscopical evaluation of trypan blue stained cell samples.

[3] = reaction 2, regular conjugate 20 mg, 5×10^6 cells, 1.5 hours, after washing once
[4] = reaction 3, regular conjugate 15 mg
[5] = reaction 4, regular conjugate 10 mg
[6] = reaction 5, regular conjugate 5 mg
[7] = reaction 6, regular conjugate 1 mg
[8] = reaction 7, regular conjugate 100 μg
[9] = reaction 8, regular conjugate 10 μg
[10] = regular conjugate 25 mg, 10×10^6 cells, 1.5 hours
[11] = reaction C, radioactive labelled conjugate 20 mg, 10×10^6 cells, 1.5 hours, after washing 4 times
[12] = reaction D, radioactive labelled conjugate 15 mg
[13] = reaction E, radioactive labelled conjugate 10 mg
[14] = reaction F, radioactive labelled conjugate 5 mg
[15] = reaction G, radioactive labelled conjugate 1 mg
[16] = reaction H, radioactive labelled conjugate 100 μg
[17] = reaction I, radioactive labelled conjugate 10 μg
[18] = reaction J, radioactive labelled conjugate 1 μg
[19] = radioactive labelled conjugate 0.1 mg
[20] = radioactive labelled conjugate 1 mg
[21] = radioactive labelled conjugate 5 mg, cells from supernatant only
[22] = radioactive labelled conjugate 25 mg, attached cells only

Structure (SMILES): O=C1N[C@@H]2O[C@H](CO)[C@@H](O[C@@H]3O[C@H](CO)[C@H](O)[C@H](O[C@H]4O[C@H](CO)[C@H](O)[C@H](O)[C@H]4O)[C@H]3O)[C@H](O)[C@H]2O1 [Compound 9, alpha-Gal trisaccharide-carbamate]
- Cell concentration (B16.BL6 melanoma cells [1]; [3]): 4.2 × 10^5 cells/mL
- Cells harvested (B16.BL6 melanoma cells [1]; [3]): 1.1 × 10^6
- Cells harvested (percent) (B16.BL6 melanoma cells [1]; [3]): 21%
- Viability (B16.BL6 melanoma cells [1]; [3]): 85.7%
- Cell concentration (B16.BL6 melanoma cells [1]; [4]): 6.0 × 10^5 cells/mL
- Cells harvested (B16.BL6 melanoma cells [1]; [4]): 1.5 × 10^6
- Cells harvested (percent) (B16.BL6 melanoma cells [1]; [4]): 30%
- Viability (B16.BL6 melanoma cells [1]; [4]): 80.0%
- Cell concentration (B16.BL6 melanoma cells [1]; [5]): 2.8 × 10^5 cells/mL
- Cells harvested (B16.BL6 melanoma cells [1]; [5]): 0.7 × 10^6
- Cells harvested (percent) (B16.BL6 melanoma cells [1]; [5]): 14%
- Viability (B16.BL6 melanoma cells [1]; [5]): 71.4%
- Cell concentration (B16.BL6 melanoma cells [1]; [6]): 4.4 × 10^5 cells/mL
- Cells harvested (B16.BL6 melanoma cells [1]; [6]): 1.1 × 10^6
- Cells harvested (percent) (B16.BL6 melanoma cells [1]; [6]): 22%
- Viability (B16.BL6 melanoma cells [1]; [6]): 81.8%
- Cell concentration (B16.BL6 melanoma cells [1]; [7]): 4.2 × 10^5 cells/mL
- Cells harvested (B16.BL6 melanoma cells [1]; [7]): 1.1 × 10^6
- Cells harvested (percent) (B16.BL6 melanoma cells [1]; [7]): 21%
- Viability (B16.BL6 melanoma cells [1]; [7]): 66.7%
- Cell concentration (B16.BL6 melanoma cells [1]; [8]): 6.0 × 10^5 cells/mL
- Cells harvested (B16.BL6 melanoma cells [1]; [8]): 1.5 × 10^6
- Cells harvested (percent) (B16.BL6 melanoma cells [1]; [8]): 30%
- Viability (B16.BL6 melanoma cells [1]; [8]): 60.1%
- Cell concentration (B16.BL6 melanoma cells [1]; [9]): 4.2 × 10^5 cells/mL
- Cells harvested (B16.BL6 melanoma cells [1]; [9]): 1.1 × 10^6
- Cells harvested (percent) (B16.BL6 melanoma cells [1]; [9]): 21%
- Viability (B16.BL6 melanoma cells [1]; [9]): 57.1%
- Cell concentration (B16.BL6 melanoma cells [2]; regular conjugate 0.1 mg): 7.4 × 10^5
- Cells harvested (B16.BL6 melanoma cells [2]; regular conjugate 0.1 mg): 3.7 × 10^6
- Cells harvested (percent) (B16.BL6 melanoma cells [2]; regular conjugate 0.1 mg): 37%
- Viability (B16.BL6 melanoma cells [2]; regular conjugate 0.1 mg): 67.6%
- Cell concentration (B16.BL6 melanoma cells [2]; regular conjugate 1 mg): 13.4 × 10^5
- Cells harvested (B16.BL6 melanoma cells [2]; regular conjugate 1 mg): 6.7 × 10^6
- Cells harvested (percent) (B16.BL6 melanoma cells [2]; regular conjugate 1 mg): 67%
- Viability (B16.BL6 melanoma cells [2]; regular conjugate 1 mg): 79.1%
- Cell concentration (B16.BL6 melanoma cells [2]; regular conjugate 5 mg): 7.0 × 10^5
- Cells harvested (B16.BL6 melanoma cells [2]; regular conjugate 5 mg): 3.5 × 10^6
- Cells harvested (percent) (B16.BL6 melanoma cells [2]; regular conjugate 5 mg): 35%
- Viability (B16.BL6 melanoma cells [2]; regular conjugate 5 mg): 91.4%
- Cell concentration (B16.BL6 melanoma cells [2]; [10]): 9.0 × 10^5
- Cells harvested (B16.BL6 melanoma cells [2]; [10]): 4.5 × 10^6
- Cells harvested (percent) (B16.BL6 melanoma cells [2]; [10]): 45%
- Viability (B16.BL6 melanoma cells [2]; [10]): 77.8%

Structure (SMILES): O=[13C]1N[C@@H]2O[C@H](CO)[C@@H](O[C@@H]3O[C@H](CO)[C@H](O)[C@H](O[C@H]4O[C@H](CO)[C@H](O)[C@H](O)[C@H]4O)[C@H]3O)[C@H](O)[C@H]2O1 [radioactive labelled conjugate]
- Cell concentration (B16.BL6 melanoma cells [1]; [11]): 6.1 × 10^6 cells/mL
- Cells harvested (B16.BL6 melanoma cells [1]; [11]): 2.7 × 10^6
- Cells harvested (percent) (B16.BL6 melanoma cells [1]; [11]): 27.5%
- Viability (B16.BL6 melanoma cells [1]; [11]): 82.0%
- Cell concentration (B16.BL6 melanoma cells [1]; [12]): 4.3 × 10^6 cells/mL
- Cells harvested (B16.BL6 melanoma cells [1]; [12]): 1.9 × 10^6
- Cells harvested (percent) (B16.BL6 melanoma cells [1]; [12]): 19.4%
- Viability (B16.BL6 melanoma cells [1]; [12]): 88.9%
- Cell concentration (B16.BL6 melanoma cells [1]; [13]): 12 × 10^6 cells/mL
- Cells harvested (B16.BL6 melanoma cells [1]; [13]): 5.4 × 10^6
- Cells harvested (percent) (B16.BL6 melanoma cells [1]; [13]): 54.0%
- Viability (B16.BL6 melanoma cells [1]; [13]): 86.7%
- Cell concentration (B16.BL6 melanoma cells [1]; [14]): 5.2 × 10^6 cells/mL
- Cells harvested (B16.BL6 melanoma cells [1]; [14]): 2.3 × 10^6
- Cells harvested (percent) (B16.BL6 melanoma cells [1]; [14]): 23.4%
- Viability (B16.BL6 melanoma cells [1]; [14]): 82.7%
- Cell concentration (B16.BL6 melanoma cells [1]; [15]): 5.9 × 10^6 cells/mL
- Cells harvested (B16.BL6 melanoma cells [1]; [15]): 2.7 × 10^6
- Cells harvested (percent) (B16.BL6 melanoma cells [1]; [15]): 26.6%
- Viability (B16.BL6 melanoma cells [1]; [15]): 91.5%
- Cell concentration (B16.BL6 melanoma cells [1]; [16]): 3.8 × 10^6 cells/mL
- Cells harvested (B16.BL6 melanoma cells [1]; [16]): 1.7 × 10^6
- Cells harvested (percent) (B16.BL6 melanoma cells [1]; [16]): 17.1%
- Viability (B16.BL6 melanoma cells [1]; [16]): 81.6%
- Cell concentration (B16.BL6 melanoma cells [1]; [17]): 6.2 × 10^6 cells/mL
- Cells harvested (B16.BL6 melanoma cells [1]; [17]): 2.8 × 10^6
- Cells harvested (percent) (B16.BL6 melanoma cells [1]; [17]): 27.9%
- Viability (B16.BL6 melanoma cells [1]; [17]): 82.3%
- Cell concentration (B16.BL6 melanoma cells [1]; [18]): 5.0 × 10^6 cells/mL
- Cells harvested (B16.BL6 melanoma cells [1]; [18]): 2.3 × 10^6
- Cells harvested (percent) (B16.BL6 melanoma cells [1]; [18]): 22.5%
- Viability (B16.BL6 melanoma cells [1]; [18]): 84.0%
- Cell concentration (B16.BL6 melanoma cells [2]; [19]): 13.8 × 10^5
- Cells harvested (B16.BL6 melanoma cells [2]; [19]): 6.9 × 10^6
- Cells harvested (percent) (B16.BL6 melanoma cells [2]; [19]): 69%
- Viability (B16.BL6 melanoma cells [2]; [19]): 91.3%
- Cell concentration (B16.BL6 melanoma cells [2]; [20]): 14.8 × 10^5
- Cells harvested (B16.BL6 melanoma cells [2]; [20]): 7.4 × 10^6
- Cells harvested (percent) (B16.BL6 melanoma cells [2]; [20]): 74%
- Viability (B16.BL6 melanoma cells [2]; [20]): 93.2%
- Cell concentration (B16.BL6 melanoma cells [2]; [21]): 10.8 × 10^5
- Cells harvested (B16.BL6 melanoma cells [2]; [21]): 5.4 × 10^6
- Cells harvested (percent) (B16.BL6 melanoma cells [2]; [21]): 54%
- Viability (B16.BL6 melanoma cells [2]; [21]): 81.5%
- Cell concentration (B16.BL6 melanoma cells [2]; [22]): 2.0 × 10^5
- Cells harvested (B16.BL6 melanoma cells [2]; [22]): 1.0 × 10^6
- Cells harvested (percent) (B16.BL6 melanoma cells [2]; [22]): 10%
- Viability (B16.BL6 melanoma cells [2]; [22]): 90.0%
